{
  "source": "patent US6825326B2",
  "about": "“PSCA: prostate stem cell antigen and uses thereof” (The Regents of the University of California, priority 1997, dated 2004)",
  "key": {"[1]": {"assay": "LD50 experiment to determine the maximum tolerable dose", "assay_type": "in vivo, mice", "protocol": "An LD50 experiment was performed to determine the maximum tolerable dose of doxorubicin. Doxorubicin (Sigma) and was resuspended in sterile PBS. Doxorubicin was administered by intraperitoneal injection, at the following doses: 50 μg, 25 μg, 12.5 μg, and 6.75 μg. […] At the lower dose ranges, the mice survived for more than 4 weeks. The maximal tolerable dose was 25 μg."}, "PC3-PSCA tumors": {"system": "PC3-PSCA tumors", "assay": "Established subcutaneous PC3-PSCA tumors", "settings": "day 43; 1G8 1 mg 3×/week 3 weeks; doxorubicin 25 μg once weekly 3 weeks", "procedure": "PC3-PSCA cells were derived by retroviral gene transfer. […] Amphotropic retrovirus was generated by co-transfection of 293T cells with pSR-α containing PSCA and a retroviral helper plasmid containing the amphotropic envelope protein. PC3 cells were subsequently infected with the PSCA containing amphotropic retrovirus, and 48 hours after infection the cells were selected by growth in medium containing the neomycin analogue G418. After 2-3 weeks of selection and expansion, a Western blot was performed to confirm that the PC3-PSCA cells express PSCA protein.\nPC3-PSCA cells were grown in T-150 flasks in DMEM+10% FBS prior to the injections. The cells were grown to log phase, harvested, washed, counted, then mixed with Matrigel at a 1:1 dilution, and kept on ice. For injection, male IcR-SCID mice were shaved on their flanks, and each mouse received a single subcutaneous injection of about 1×10^6 cells in a volume of 100 μl on the right flank. The growth of PC3-PSCA tumors was followed by caliper measurements of the growing tumors. The mice were selected for treatment when the tumor reached the size of 100-200 mm^3, at approximately 9 days after the subcutaneous injection. The tumor size was measured at days +9, +15, +23, +29, +36, and +43 post injection.\nThe mice treated with 1G8, were administered 1 mg of 1G8, three times per week for three consecutive weeks. […]"}},
  "data": [
    {"smiles": "COc1cccc2c1C(=O)c1c(O)c3c(c(O)c1C2=O)C[C@@](O)(C(=O)CO)C[C@@H]3O[C@H]1C[C@H](N)[C@H](O)[C@H](C)O1", "note": "[doxorubicin]", "values": [
      {"measurement": "survival at the lower dose ranges", "setting": "[1]; 25 μg, 12.5 μg, 6.75 μg intraperitoneal", "result": "more than 4 weeks"},
      {"measurement": "mortality at the highest dose", "setting": "[1]; 50 μg intraperitoneal", "result": "all the mice died within 2 weeks"},
      {"measurement": "maximal tolerable dose", "setting": "[1]; intraperitoneal injection", "result": 25, "unit": "µg"},
      {"measurement": "growth inhibition compared to PBS", "setting": "PC3-PSCA tumors", "result": 4, "unit": "%"}
    ]}
  ]
}
